Source: patent publication US11572341B2, “Biguanide compound and use thereof” (ImmunoMet Therapeutics Inc., priority 2014, dated 2023)
Counter-ions that a name gives are not always drawn.

system: HCT116 cells; test: Inhibitory effect against cancer cell proliferation (MTT); format: cell-based, human; conditions: Homo sapiens, HCT-116, 48 h, read-out: IC50 (uM) @ HCT116
Protocol: The formazane crystals thus formed were dissolved using dimethyl sulfoxide (DMSO) and absorbance of the solution was measured at 560 nm. After culturing for 48 hours, […] synthesized in Examples was indicated as cell viability (%) according to each treated concentration.

Going from COc1ccc(CNC(=N)NC(=N)N)cc1 [Example 131, N1-(4-methoxy)benzyl Biguanide Hydrochloride] to Cl.N=C(N)NC(=N)Nc1ccc(Cl)cc1 [Example 110, N1-(4-chloro)phenyl Biguanide Hydrochloride], the IC50 falls from over 100 µM to 97.2 µM.

same assay, conditions: Homo sapiens, HCT-116; HCT116, MTT, 48 hours; read-out: IC50 (uM) @ HCT116

Going from CN1CCN(C(=N)NC(=N)NCc2ccc(C(F)(F)F)cc2)CC1.Cl [Example 18, N1-(4-methyl)piperazin-N5-(4-trifluoromethyl)benzyl Biguanide Hydrochloride] to CN1CCN(C(=N)NC(=N)Nc2ccc(C(F)(F)F)cc2)CC1.Cl [Example 19, N1-(4-methyl)piperazin-N5-(4-trifluoromethyl)phenyl Biguanide Hydrochloride], the IC50 falls from over 100 µM to 41.7 µM.

CC1CC(C)CN(C(=N)NC(=N)Nc2ccc(OC(F)(F)F)cc2)C1.Cl (stereo not drawn) [Example 62, N1-(3,5-dimethyl)piperidin-N5-(4-trifluoromethoxy)phenyl Biguanide Hydrochloride] and CC1CCN(C(=N)NC(=N)Nc2ccc(OC(F)(F)F)c(F)c2)CC1.Cl [Example 59, N1-(4-methyl)piperidin-N5-(3-fluoro-4-trifluoromethoxy)phenyl Biguanide Hydrochloride] are within 1.5-fold of each other in IC50: 2.8 µM for the first, 2.3 µM for the second.

Cl.N=C(N)NC(=N)N1CCCCCC1 [Example 139, N1-azepane Biguanide Hydrochloride] and Cl.N=C(NC(=N)N1CCCCC1)Nc1ccc(N2CCOCC2)cc1 [Example 71, N1-piperidin-N5-(4-morpholin-4-yl)phenyl Biguanide Hydrochloride] cannot be ordered by IC50: over 100 µM for the first, over 100 µM for the second.

CCOC1CCN(C(=N)NC(=N)N2CCCC(C)C2)CC1 (stereo not drawn) [Example 46, N1-(3-methyl)piperidin-N5-(4-ethos)piperidine Biguanide Hydrochloride] and CC1CCN(C(=N)NC(=N)Nc2ccc(CCN)cc2)CC1.Cl [Example 69, N1-(4-methyl)piperidin-N5-(4-aminoethyl)phenyl Biguanide Hydrochloride] cannot be ordered by IC50: over 100 µM for the first, over 100 µM for the second.

Going from CN1CCN(C(=N)NC(=N)Nc2cccc(F)c2)CC1.Cl [Example 28, N1-(4-methyl)piperazin-N5-(3-fluoro)phenyl Biguanide Hydrochloride] to CN1CCN(C(=N)NC(=N)Nc2cccc(C(F)(F)F)c2)CC1.Cl [Example 21, N1-(4-methyl)piperazin-N5-(3-trifluoromethyl)phenyl Biguanide Hydrochloride], the IC50 falls from over 100 µM to 43.2 µM. The second is the more potent here.

In the case of Cl.N=C(N)NC(=N)NCCc1ccc2c(c1)OCO2 [Example 143, N1-2-(benzo[d][1,3]dioxol-5-yl)ethyl Biguanide Hydrochloride], the IC50 is reported as 124 µM.

system: AMPKa [pT172]; test: AMPKa activation [pT172] in MCF7 cell; format: cell-based; conditions: 5 uM

First: CN1CCN(C(=N)NC(=N)NCc2ccc(C(F)(F)F)cc2)CC1.Cl [Example 18, N1-(4-methyl)piperazin-N5-(4-trifluoromethyl)benzyl Biguanide Hydrochloride]
Second: CN1CCN(C(=N)NC(=N)Nc2ccc(C(F)(F)F)cc2)CC1.Cl [Example 19, N1-(4-methyl)piperazin-N5-(4-trifluoromethyl)phenyl Biguanide Hydrochloride]
The “AMPKa activation [pT172] (Unit/ml) @ MCF7 cell” value (“AMPKa activation [pT172]” for short) of the first is higher: 7.1 Unit/ml for the first, 3.3 Unit/ml for the second.

Going from CC1CC(C)CN(C(=N)NC(=N)Nc2ccc(OC(F)(F)F)cc2)C1.Cl (stereo not drawn) [Example 62, N1-(3,5-dimethyl)piperidin-N5-(4-trifluoromethoxy)phenyl Biguanide Hydrochloride] to CC1CCN(C(=N)NC(=N)Nc2ccc(OC(F)(F)F)c(F)c2)CC1.Cl [Example 59, N1-(4-methyl)piperidin-N5-(3-fluoro-4-trifluoromethoxy)phenyl Biguanide Hydrochloride], the “AMPKa activation [pT172]” value rises from 8.5 Unit/ml to 9.8 Unit/ml.

Going from Cl.N=C(N)NC(=N)N1CCCCCC1 [Example 139, N1-azepane Biguanide Hydrochloride] to Cl.N=C(NC(=N)N1CCCCC1)Nc1ccc(N2CCOCC2)cc1 [Example 71, N1-piperidin-N5-(4-morpholin-4-yl)phenyl Biguanide Hydrochloride], the “AMPKa activation [pT172]” value falls from 5.7 Unit/ml to 3.8 Unit/ml.

Going from CCOC1CCN(C(=N)NC(=N)N2CCCC(C)C2)CC1 (stereo not drawn) [Example 46, N1-(3-methyl)piperidin-N5-(4-ethos)piperidine Biguanide Hydrochloride] to CC1CCN(C(=N)NC(=N)Nc2ccc(CCN)cc2)CC1.Cl [Example 69, N1-(4-methyl)piperidin-N5-(4-aminoethyl)phenyl Biguanide Hydrochloride], the “AMPKa activation [pT172]” value rises from 3.8 Unit/ml to 5.6 Unit/ml.

First: CN1CCN(C(=N)NC(=N)Nc2cccc(F)c2)CC1.Cl [Example 28, N1-(4-methyl)piperazin-N5-(3-fluoro)phenyl Biguanide Hydrochloride]
Second: CN1CCN(C(=N)NC(=N)Nc2cccc(C(F)(F)F)c2)CC1.Cl [Example 21, N1-(4-methyl)piperazin-N5-(3-trifluoromethyl)phenyl Biguanide Hydrochloride]
The “AMPKa activation [pT172]” value of the first is higher: 7.7 Unit/ml for the first, 6.0 Unit/ml for the second.

With Cl.N=C(N)NC(=N)NCCc1ccc2c(c1)OCO2 [Example 143, N1-2-(benzo[d][1,3]dioxol-5-yl)ethyl Biguanide Hydrochloride] the “AMPKa activation [pT172]” value was 5.5 Unit/ml.

same assay, conditions: 10 uM

Compared with CN1CCN(C(=N)NC(=N)NCc2ccc(C(F)(F)F)cc2)CC1.Cl [Example 18, N1-(4-methyl)piperazin-N5-(4-trifluoromethyl)benzyl Biguanide Hydrochloride], CN1CCN(C(=N)NC(=N)Nc2ccc(C(F)(F)F)cc2)CC1.Cl [Example 19, N1-(4-methyl)piperazin-N5-(4-trifluoromethyl)phenyl Biguanide Hydrochloride] is lower in “AMPKa activation [pT172]” value: 8.6 Unit/ml for the first, 4.3 Unit/ml for the second.

Going from CC1CC(C)CN(C(=N)NC(=N)Nc2ccc(OC(F)(F)F)cc2)C1.Cl (stereo not drawn) [Example 62, N1-(3,5-dimethyl)piperidin-N5-(4-trifluoromethoxy)phenyl Biguanide Hydrochloride] to CC1CCN(C(=N)NC(=N)Nc2ccc(OC(F)(F)F)c(F)c2)CC1.Cl [Example 59, N1-(4-methyl)piperidin-N5-(3-fluoro-4-trifluoromethoxy)phenyl Biguanide Hydrochloride], the “AMPKa activation [pT172]” value falls from 26.6 Unit/ml to 13.3 Unit/ml.

First: Cl.N=C(N)NC(=N)N1CCCCCC1 [Example 139, N1-azepane Biguanide Hydrochloride]
Second: Cl.N=C(NC(=N)N1CCCCC1)Nc1ccc(N2CCOCC2)cc1 [Example 71, N1-piperidin-N5-(4-morpholin-4-yl)phenyl Biguanide Hydrochloride]
The “AMPKa activation [pT172]” value of the first is higher: 5.8 Unit/ml for the first, 4.3 Unit/ml for the second.

Going from CCOC1CCN(C(=N)NC(=N)N2CCCC(C)C2)CC1 (stereo not drawn) [Example 46, N1-(3-methyl)piperidin-N5-(4-ethos)piperidine Biguanide Hydrochloride] to CC1CCN(C(=N)NC(=N)Nc2ccc(CCN)cc2)CC1.Cl [Example 69, N1-(4-methyl)piperidin-N5-(4-aminoethyl)phenyl Biguanide Hydrochloride], the “AMPKa activation [pT172]” value rises from 3.6 Unit/ml to 4.7 Unit/ml.

Going from CN1CCN(C(=N)NC(=N)Nc2cccc(F)c2)CC1.Cl [Example 28, N1-(4-methyl)piperazin-N5-(3-fluoro)phenyl Biguanide Hydrochloride] to CN1CCN(C(=N)NC(=N)Nc2cccc(C(F)(F)F)c2)CC1.Cl [Example 21, N1-(4-methyl)piperazin-N5-(3-trifluoromethyl)phenyl Biguanide Hydrochloride], the “AMPKa activation [pT172]” value falls from 9.2 Unit/ml to 5.8 Unit/ml.

Cl.N=C(N)NC(=N)NCCc1ccc2c(c1)OCO2 [Example 143, N1-2-(benzo[d][1,3]dioxol-5-yl)ethyl Biguanide Hydrochloride] was tested, and the “AMPKa activation [pT172]” value was 5.7 Unit/ml.

same assay, conditions: 50 uM

Going from CN1CCN(C(=N)NC(=N)NCc2ccc(C(F)(F)F)cc2)CC1.Cl [Example 18, N1-(4-methyl)piperazin-N5-(4-trifluoromethyl)benzyl Biguanide Hydrochloride] to CN1CCN(C(=N)NC(=N)Nc2ccc(C(F)(F)F)cc2)CC1.Cl [Example 19, N1-(4-methyl)piperazin-N5-(4-trifluoromethyl)phenyl Biguanide Hydrochloride], the “AMPKa activation [pT172]” value rises from 13.3 Unit/ml to 15.3 Unit/ml.

Compared with Cl.N=C(N)NC(=N)N1CCCCCC1 [Example 139, N1-azepane Biguanide Hydrochloride], Cl.N=C(NC(=N)N1CCCCC1)Nc1ccc(N2CCOCC2)cc1 [Example 71, N1-piperidin-N5-(4-morpholin-4-yl)phenyl Biguanide Hydrochloride] is lower in “AMPKa activation [pT172]” value: 10.9 Unit/ml for the first, 5.8 Unit/ml for the second.

Going from CCOC1CCN(C(=N)NC(=N)N2CCCC(C)C2)CC1 (stereo not drawn) [Example 46, N1-(3-methyl)piperidin-N5-(4-ethos)piperidine Biguanide Hydrochloride] to CC1CCN(C(=N)NC(=N)Nc2ccc(CCN)cc2)CC1.Cl [Example 69, N1-(4-methyl)piperidin-N5-(4-aminoethyl)phenyl Biguanide Hydrochloride], the “AMPKa activation [pT172]” value falls from 5.4 Unit/ml to 5.3 Unit/ml.

Going from CN1CCN(C(=N)NC(=N)Nc2cccc(F)c2)CC1.Cl [Example 28, N1-(4-methyl)piperazin-N5-(3-fluoro)phenyl Biguanide Hydrochloride] to CN1CCN(C(=N)NC(=N)Nc2cccc(C(F)(F)F)c2)CC1.Cl [Example 21, N1-(4-methyl)piperazin-N5-(3-trifluoromethyl)phenyl Biguanide Hydrochloride], the “AMPKa activation [pT172]” value rises from 7.9 Unit/ml to 14.8 Unit/ml.

Going from Cl.N=C(N)NC(=N)NCCc1ccc2c(c1)OCO2 [Example 143, N1-2-(benzo[d][1,3]dioxol-5-yl)ethyl Biguanide Hydrochloride] to COc1ccc(CNC(=N)NC(=N)N)cc1 [Example 131, N1-(4-methoxy)benzyl Biguanide Hydrochloride], the “AMPKa activation [pT172]” value rises from 7.2 Unit/ml to 17.6 Unit/ml.

Cl.N=C(N)NC(=N)Nc1ccc(Cl)cc1 [Example 110, N1-(4-chloro)phenyl Biguanide Hydrochloride] was tested, and the “AMPKa activation [pT172]” value was 3.9 Unit/ml.

In the case of CC1CC(C)CN(C(=N)NC(=N)Nc2ccc(OC(F)(F)F)cc2)C1.Cl (stereo not drawn) [Example 62, N1-(3,5-dimethyl)piperidin-N5-(4-trifluoromethoxy)phenyl Biguanide Hydrochloride], the “AMPKa activation [pT172]” value is reported as “cell death”.
For CC1CCN(C(=N)NC(=N)Nc2ccc(OC(F)(F)F)c(F)c2)CC1.Cl [Example 59, N1-(4-methyl)piperidin-N5-(3-fluoro-4-trifluoromethoxy)phenyl Biguanide Hydrochloride], the “AMPKa activation [pT172]” value was “cell death”.
